According to the supplement of paper PMC10331698:
± gives the standard deviation of the averaged measurements.

Columns and labels:
[1] = compound: OCC(F)(F)OC(F)(F)C(F)(F)OC(F)(F)C(F)(F)OC(F)(F)CO [1H,1H,11H,11H-Perfluorotetraethylene glycol] (in DMSO); assay: level (log10 ratio to DMSO vehicle control); higher = higher biomarker level / cell amount than vehicle control
Experimental: (§1)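 BioMAP Diversity Plus panel of 12 human primary cell co-culture systems (3C, 4H, LPS, SAg, BT, BF4T, BE3C, CASM3C, HDF3CGF, KF3CT, MyoF, Mphg). Compounds were added 1 h before stimulation and left for 24 h (MyoF 48 h; BT 72 h for soluble read-outs or 6 d for IgG). Biomarkers were read by ELISA, cytotoxicity by SRB, PBMC viability and proliferation by Alamar Blue. Each well value was divided by the mean of 8 DMSO control wells on the same plate and log10 transformed; duplicate blinded samples were tested at 4 concentrations.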

[2] = compound: O=C(O)C(F)(OC(F)(F)C(F)(OC(F)(F)C(F)(OC(F)(F)C(F)(F)C(F)(F)F)C(F)(F)F)C(F)(F)F)C(F)(F)F [Perfluoro-(2,5,8-trimethyl-3,6,9-trioxadodecanoic)acid] (in DMSO); assay: as above
Experimental: as §1

Row | Test System | level (log10) ([1]; 6700 nM) | level (log10) ([1]; 20000 nM) | level (log10) ([1]; 60000 nM) | level (log10) ([2]; 1100 nM) | level (log10) ([2]; 3300 nM) | level (log10) ([2]; 10000 nM)
1 | BT:B cell Proliferation | 0.0215 ± 0.0021 | -0.0175 ± 0.021 | -0.051 ± 0.011 | -0.029 ± 0.027 | -0.0035 ± 0.013 | -0.0145 ± 0.011
2 | BF4T:CCL2/MCP-1 | -0.0295 ± 0.012 | -0.119 ± 0.016 | -0.227 ± 0.013 | 0.007 ± 0.028 | 0.0015 ± 0.00071 | -0.004 ± 0.017
3 | SAg:CCL2/MCP-1 | -0.023 ± 0.038 | -0.0395 ± 0.03 | -0.094 ± 0.024 | -0.0025 ± 0.018 | -0.0055 ± 0.0035 | 0.0195 ± 0.025
4 | LPS:CD69 | -0.0115 ± 0.025 | -0.072 ± 0.035 | -0.095 ± 0.011 | -0.021 ± 0.0014 | -0.0255 ± 0.0078 | -0.007
5 | BF4T:CD106/VCAM-1 | 0.0765 ± 0.0092 | -0.018 ± 0.037 | -0.0835 ± 0.043 | -0.027 ± 0.0028 | -0.0185 ± 0.026 | -0.018 ± 0.023
6 | LPS:CXCL8/IL-8 | -0.0025 ± 0.00071 | -0.01 ± 0.0057 | -0.02 ± 0.011 | 0.0045 ± 0.016 | -0.0045 ± 0.0064 | 0.0095 ± 0.0021
7 | LPS:sTNF-alpha | 0.0035 ± 0.0078 | 0.002 ± 0.0085 | -0.082 ± 0.0099 | 0.0035 ± 0.022 | -0.001 ± 0.016 | 0.001 ± 0.02
8 | BF4T:CD90 | -0.005 ± 0.0042 | -0.03 ± 0.0014 | -0.071 ± 0.0085 | 0.001 ± 0.0042 | 0 ± 0.0028 | 0.0085 ± 0.0035
9 | LPS:CD106/VCAM-1 | 0.001 ± 0.045 | -0.002 ± 0.034 | -0.041 ± 0.052 | -0.009 ± 0.0099 | -0.0005 ± 0.0021 | -0.006 ± 0.0057
10 | BF4T:MMP-1 | -0.0025 ± 0.016 | 0.0005 ± 0.018 | 0.0065 ± 0.046 | 0.0005 ± 0.0092 | -0.0045 ± 0.011 | 0.0065 ± 0.018
11 | LPS:CCL2/MCP-1 | -0.0125 ± 0.0035 | -0.033 ± 0.028 | -0.0405 ± 0.025 | -0.0105 ± 0.022 | -0.014 ± 0.0042 | -0.002 ± 0.0099
12 | BE3C:CXCL11/I-TAC | -0.0135 ± 0.0021 | -0.03 ± 0.0028 | -0.092 ± 0.028 | 0.0145 ± 0.0092 | 0.0165 ± 0.013 | 0.014 ± 0.016
13 | SAg:CD69 | -0.0095 ± 0.1 | -0.0275 ± 0.066 | -0.162 ± 0.061 | -0.0135 ± 0.005 | -0.015 ± 0.0042 | -0.0095 ± 0.023
14 | LPS:M-CSF | 0.0105 ± 0.03 | -0.0025 ± 0.036 | 0.0355 ± 0.011 | -0.005 ± 0.02 | 0.0145 ± 0.035 | 0.022 ± 0.023
15 | 4H:CD106/VCAM-1 | 0.0345 ± 0.011 | -0.016 ± 0.011 | -0.078 ± 0.016 | 0.019 ± 0.013 | 0.027 ± 0.014 | 0.049 ± 0.0099
16 | LPS:SRB | -0.0175 ± 0.0078 | -0.0255 ± 0.013 | -0.086 ± 0.013 | -0.008 ± 0.0042 | -0.0125 ± 0.005 | -0.001 ± 0.0085
17 | LPS:IL-1alpha | -0.02 ± 0.024 | -0.017 ± 0.0057 | -0.006 ± 0.042 | 0.0135 ± 0.00071 | -0.0305 ± 0.023 | -0.005 ± 0.059

Row | Test System | level (log10) ([1]; 6700 nM) | level (log10) ([1]; 20000 nM) | level (log10) ([1]; 60000 nM) | level (log10) ([2]; 1100 nM) | level (log10) ([2]; 3300 nM) | level (log10) ([2]; 10000 nM)
18 | BT:sIL-2 | 0.0295 ± 0.12 | 0.0865 ± 0.1 | 0.005 ± 0.13 | 0 ± 0.05 | 0.061 ± 0.069 | 0.0465 ± 0.026
19 | BF4T:CD54/ICAM-1 | -0.002 ± 0.023 | -0.03 ± 0.0014 | -0.0815 ± 0.0064 | 0.0025 ± 0.018 | 0.004 ± 0.0042 | 0.004 ± 0.0085
20 | LPS:CD141/Thrombomodulin | 0.0725 ± 0.076 | 0.09 ± 0.067 | 0.157 ± 0.056 | -0.019 ± 0.0028 | -0.002 ± 0.0042 | 0.0005 ± 0.0021
21 | 4H:CCL2/MCP-1 | -0.0525 ± 0.029 | -0.126 ± 0.0071 | -0.196 ± 0.027 | 0.0005 ± 0.012 | -0.017 ± 0.0099 | 0.0205 ± 0.021
22 | BE3C:HLA-DR | -0.03 ± 0.011 | -0.016 ± 0.0014 | -0.163 ± 0.013 | -0.0055 ± 0.005 | -0.0095 ± 0.0021 | 0.0085 ± 0.0078
23 | LPS:CD62E/E-Selectin | 0.004 ± 0.025 | -0.012 ± 0.016 | -0.0165 ± 0.016 | -0.002 ± 0.0099 | -0.0115 ± 0.005 | -0.0135 ± 0.0035
24 | BE3C:CD87/uPAR | 0.0025 ± 0.0078 | 0.01 ± 0.0071 | -0.0355 ± 0.0078 | -0.0035 ± 0.0021 | -0.011 ± 0.0057 | 0.025 ± 0.024
25 | 4H:SRB | -0.0045 ± 0.013 | -0.032 ± 0.023 | -0.0795 ± 0.037 | 0.0045 ± 0.0064 | 0 ± 0.0028 | 0.009 ± 0.0057
26 | BF4T:IL-1alpha | 0.0095 ± 0.012 | -0.002 ± 0.025 | 0.003 ± 0.051 | -0.005 ± 0.0099 | -0.0105 ± 0.00071 | -0.0025 ± 0.0035
27 | 4H:VEGFR2 | 0.008 ± 0.042 | 0.003 ± 0.05 | 0.07 ± 0.051 | -0.002 ± 0.014 | -0.0135 ± 0.005 | 0.001 ± 0.0071
28 | BE3C:CXCL9/MIG | -0.005 ± 0.0042 | 0.004 ± 0.0071 | -0.0355 ± 0.015 | -0.001 ± 0.0071 | 0.0025 ± 0.0078 | 0.0045 ± 0.015
29 | BF4T:uPA | -0.0125 ± 0.018 | -0.0155 ± 0.013 | -0.0215 ± 0.0064 | 0.008 ± 0.0028 | 0.0015 ± 0.0035 | 0.004 ± 0.0071
30 | BT:PBMC Cytotoxicity | 0.019 ± 0.0042 | -0.018 ± 0.03 | -0.0425 ± 0.028 | -0.0095 ± 0.0092 | -0.022 ± 0.011 | -0.04 ± 0.047
31 | LPS:CD40 | -0.0565 ± 0.026 | -0.058 ± 0.054 | -0.126 ± 0.035 | 0.04 ± 0.1 | 0.0475 ± 0.015 | 0.007 ± 0.055
32 | 3C:CXCL8/IL-8 | 0.003 ± 0.025 | -0.009 ± 0.0099 | -0.0045 ± 0.0035 | -0.004 ± 0.021 | -0.015 ± 0.011 | 0.005 ± 0.024
33 | BF4T:PAI-I | -0.0035 ± 0.0092 | -0.0335 ± 0.00071 | -0.069 ± 0.016 | 0.011 ± 0.0071 | -0.0025 ± 0.0092 | 0.006 ± 0.018
34 | SAg:CXCL9/MIG | -0.0095 ± 0.005 | 0.0095 ± 0.0035 | 0.015 ± 0.0071 | -0.01 ± 0.017 | 0.008 ± 0.017 | -0.0005 ± 0.016
